Source: publication PMC4114195, “Identification of a cyclic-di-GMP-modulating response regulator that impacts biofilm formation in a model sulfate reducing bacterium” (Frontiers in Microbiology, 2014)

Columns and labels:
Format in all cases: biochemical
DVU0408 [1] = molecular target: T1, DVU0408 (Nitratidesulfovibrio vulgaris, UniProt Q72F10); assay: HPLC, c-di-GMP hydrolysis with added GTP; settings: 100 μM GTP, 100 μM c-di-GMP, 2 mM MnCl2; proposed allosteric at inactive GGDEF domain
T1 construct: gene DVU_0408; full length (gene 2148 bp, about 715 residues), GGDEF-EAL response regulator; E. coli
T1 sequence (Q72F10 1-715): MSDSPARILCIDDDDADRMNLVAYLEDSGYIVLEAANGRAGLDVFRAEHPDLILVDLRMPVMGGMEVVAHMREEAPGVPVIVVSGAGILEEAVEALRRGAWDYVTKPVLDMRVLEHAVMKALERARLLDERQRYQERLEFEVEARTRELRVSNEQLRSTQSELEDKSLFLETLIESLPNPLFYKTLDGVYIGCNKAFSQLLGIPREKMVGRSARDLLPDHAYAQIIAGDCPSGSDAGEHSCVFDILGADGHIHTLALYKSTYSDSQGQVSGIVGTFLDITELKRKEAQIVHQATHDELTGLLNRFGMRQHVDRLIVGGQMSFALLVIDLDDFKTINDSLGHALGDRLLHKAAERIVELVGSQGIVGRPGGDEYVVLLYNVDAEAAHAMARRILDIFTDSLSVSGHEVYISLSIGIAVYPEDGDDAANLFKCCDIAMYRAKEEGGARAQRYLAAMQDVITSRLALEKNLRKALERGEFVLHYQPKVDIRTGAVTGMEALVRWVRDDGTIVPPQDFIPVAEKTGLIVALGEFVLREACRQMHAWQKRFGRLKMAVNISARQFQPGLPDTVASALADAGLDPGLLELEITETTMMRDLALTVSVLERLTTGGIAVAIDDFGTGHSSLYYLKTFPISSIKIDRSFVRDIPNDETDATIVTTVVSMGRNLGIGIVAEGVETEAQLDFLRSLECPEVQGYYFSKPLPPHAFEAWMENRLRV

DVU0330 HD domain = molecular target: T2, DVU0330 HD domain (Nitratidesulfovibrio vulgaris, UniProt Q72F84); assay: absorbance at […] nm, phosphodiesterase assay; settings: 5 mM bis-pNPP, 1 or 10 mM MnCl2, pH 8.0
T2 construct: gene DVU_0330; isolated HD (HDOD, no GYP motif) domain 230-412; N-terminal 8xHis-Strep II-MBP tag cut by TEV; E. coli
T2 sequence (Q72F84 230-412): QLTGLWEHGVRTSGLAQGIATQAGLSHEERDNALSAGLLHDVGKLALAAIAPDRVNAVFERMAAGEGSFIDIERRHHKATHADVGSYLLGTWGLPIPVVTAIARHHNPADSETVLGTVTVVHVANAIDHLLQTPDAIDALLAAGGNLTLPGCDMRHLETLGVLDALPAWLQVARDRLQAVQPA

DVU1181 HD-GYP domain = molecular target: T3, DVU1181 HD-GYP domain (Nitratidesulfovibrio vulgaris, UniProt Q72CV2); assay: absorbance at […] nm, phosphodiesterase assay; settings: 5 mM bis-pNPP, 1 or 10 mM MnCl2, pH 8.0
T3 construct: gene DVU_1181; isolated HD-GYP domain 176-356; N-terminal 8xHis-Strep II-MBP tag cut by TEV; E. coli
T3 sequence (Q72CV2 176-356): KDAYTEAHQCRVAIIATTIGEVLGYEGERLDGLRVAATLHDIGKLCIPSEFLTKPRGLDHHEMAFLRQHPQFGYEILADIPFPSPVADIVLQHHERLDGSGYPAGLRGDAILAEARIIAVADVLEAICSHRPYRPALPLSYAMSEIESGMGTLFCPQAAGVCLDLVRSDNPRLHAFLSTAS

DVUA0086 HD-GYP domain = molecular target: T4, DVUA0086 HD-GYP domain (Nitratidesulfovibrio vulgaris, UniProt Q72WK3); assay: HILIC-TOF MS, c-di-GMP hydrolysis; settings: 100 μM c-di-GMP, 10 mM MnCl2, pH 8.0, room temperature, 24 h
T4 construct: isolated HD-GYP domain 164-363; N-terminal 6xHis tag cut by TEV; E. coli; gene on native plasmid pDV1
T4 sequence (Q72WK3 164-363): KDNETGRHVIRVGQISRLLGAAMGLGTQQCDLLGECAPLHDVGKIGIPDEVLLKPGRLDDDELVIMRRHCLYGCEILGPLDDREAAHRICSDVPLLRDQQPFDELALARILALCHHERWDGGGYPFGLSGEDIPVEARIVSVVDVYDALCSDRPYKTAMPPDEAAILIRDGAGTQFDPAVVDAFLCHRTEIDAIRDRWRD

DVU0722 HD-GYP domain = molecular target: T5, DVU0722 HD-GYP domain (Nitratidesulfovibrio vulgaris, UniProt Q72E57); assay: HILIC-TOF MS, c-di-GMP hydrolysis; settings: 100 μM c-di-GMP, 10 mM MnCl2, pH 8.0, room temperature, 24 h
T5 construct: gene DVU_0722; isolated HD-GYP domain 336-518; N-terminal 8xHis-Strep II-MBP tag cut by TEV; E. coli
T5 sequence (Q72E57 336-518): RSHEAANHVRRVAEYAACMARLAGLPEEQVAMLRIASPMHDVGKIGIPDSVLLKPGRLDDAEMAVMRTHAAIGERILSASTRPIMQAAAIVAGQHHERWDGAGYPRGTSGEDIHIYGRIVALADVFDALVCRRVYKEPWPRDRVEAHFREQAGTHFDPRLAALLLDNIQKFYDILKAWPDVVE

DVU0408 [2] = molecular target: T1, DVU0408; assay: HPLC, phosphodiesterase assay, pGpG formed; settings: 100 μM c-di-GMP, 2 mM MnCl2
DVU2933 HD-GYP domain = molecular target: T6, DVU2933 HD-GYP domain (Nitratidesulfovibrio vulgaris, UniProt Q727C2); assay: HILIC-TOF MS, c-di-GMP hydrolysis; settings: 100 μM c-di-GMP, 10 mM MnCl2, pH 8.0, room temperature, 24 h
T6 construct: gene DVU_2933; isolated HD-GYP domain 282-458; N-terminal 6xHis tag cut by TEV; E. coli
T6 sequence (Q727C2 282-458): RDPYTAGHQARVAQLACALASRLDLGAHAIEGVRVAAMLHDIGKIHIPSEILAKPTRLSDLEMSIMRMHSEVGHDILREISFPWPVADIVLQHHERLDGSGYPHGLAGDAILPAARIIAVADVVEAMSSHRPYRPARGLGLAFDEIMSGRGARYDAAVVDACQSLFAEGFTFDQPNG

Nc1nc2c(ncn2[C@@H]2O[C@H](COP(=O)(O)OP(=O)(O)OP(=O)(O)O)[C@@H](O)[C@H]2O)c(=O)[nH]1 [GTP]
HPLC, c-di-GMP hydrolysis with added GTP (DVU0408 [1]): There was an increase in the pGpG peak upon addition of GTP.

O=[N+]([O-])c1ccc(OP(=O)(O)Oc2ccc([N+](=O)[O-])cc2)cc1 [bis-pNPP]
absorbance at 410 nm, phosphodiesterase assay (DVU0330 HD domain): DVU0330 that lacks the GYP motif showed very low activity | absorbance at 410 nm, phosphodiesterase assay (DVU1181 HD-GYP domain): DVU0722 and DVU1181 showed slower activity

Nc1nc2c(ncn2[C@@H]2O[C@@H]3COP(=O)(O)O[C@H]4[C@@H](O)[C@H](n5cnc6c(=O)[nH]c(N)nc65)O[C@@H]4COP(=O)(O)O[C@H]3[C@H]2O)c(=O)[nH]1 [c-di-GMP]
HILIC-TOF MS, c-di-GMP hydrolysis (DVUA0086 HD-GYP domain): DVUA0086 protein had maximum activity and completely hydrolyzed c-di-GMP | HILIC-TOF MS, c-di-GMP hydrolysis (DVU0722 HD-GYP domain): DVU0722 protein also hydrolyzed most of the c-di-GMP to pGpG. | HPLC, phosphodiesterase assay, pGpG formed (DVU0408 [2]): it did have PDE activity against c-di-GMP | HILIC-TOF MS, c-di-GMP hydrolysis (DVU2933 HD-GYP domain): DVU2933 protein had lower activity, but again pGpG was the main product formed.
